This passage reports viability results from paper PMC12040169 (PLOS Biology, 2025).

Molecules are shown by their SMILES.

This data set is described as follows: in vitro. As to conditions: human, hela cells, % viability.
Regarding `O=C(O)CC1COCCN1Cc1ccc(Cn2cccn2)cc1` (centres unmarked) [CBK306827], the viability at 28.5 h, 10 µM stood at 89.1%.
Then `CCn1c(C)nnc1SCCNc1cc(C(C)C)nc2ccnn12` [CBK306829], with 81.4%; and `Cn1nc(NC(=O)CN2CCOC2=O)c2c(N3CCOCC3)cccc21` [CBK306830], with 102%; and `COc1ccc2cc(C(=O)N(CCO)Cc3ccc(C)s3)n(C)c2c1` [CBK306831], with 116%.
Then `CCCN1CC(NS(=O)(=O)c2cc(-n3cccn3)ccc2C)CC1=O` (centres unmarked) [CBK306835], with 98.3%; and `Cc1ccc(CNC(=O)c2ccc3c(c2)nc(N2CC[C@H](O)C2)n3C)s1` [CBK306837], with 90.9%.
Then `CNC(=O)c1cn2cc(-c3cccs3)n(CC3CC3)c(=O)c2n1` [CBK306838], with 84%; and `COc1cc(NC(=O)CN2CCc3c(c(CO)nn3C)C2)cc(OC)c1` [CBK306841], with 114%; and `COc1ccccc1CN(Cc1cccnc1)C(=O)CNC(C)=O` [CBK306843], with 96.2%.
Take `CCOc1ccc(NC(=O)N(Cc2ccccn2)CC2CCCO2)cc1` (centres unmarked) [CBK306847]: the viability at 28.5 h, 10 µM turned out to be 83.7%.
Then `COCCN(C)c1ccc(C(=O)N2CCC(N3CCOCC3)CC2)cn1` [CBK306851], with 111%; and `Cn1nc(C(=O)N2Cc3cnn(Cc4ccc(F)cc4)c3C2)ccc1=O` [CBK306855], with 83%.
With `COCCn1c(CO)nnc1[C@H]1C[C@@H](NC(=O)c2ccc(F)cc2C)C1` [CBK306856], the viability at 28.5 h, 10 µM came to 94.7%.
With `Cc1[nH]c(=O)c(C#N)cc1C(=O)N(C)Cc1cc(-c2ccncc2)no1` [CBK306859] the figure was 113%; with `O=C(NC1CCC1)c1cn2cc(-c3cccs3)n(CC3CC3)c(=O)c2n1` [CBK306863], 82.9%.
Then `COc1cccc(C(=O)NCCC(=O)N2CCCC(c3ncc[nH]3)C2)c1` (centres unmarked) [CBK306864], with 82.5%; and `CC(=O)Nc1cccc(C(=O)N(Cc2ccccn2)CC2CCCO2)c1` (centres unmarked) [CBK306867], with 90.5%.
Consider `Cc1cc(=O)c2ccccc2n1CC(=O)N1CCC2(CCOCC2)CC1` [CBK306869], for which the viability at 28.5 h, 10 µM stood at 94.7%.
Then `COc1ncc(C(=O)NCc2cccnc2N(C)C2CCCCC2)cn1` [CBK306870], with 91.8%; and `CCCC(C)c1cn(CCc2cc(O)nc(C)n2)nn1` (centres unmarked) [CBK306871], with 93.8%.
In the case of `Cn1c(N2CC[C@H](O)C2)nc2cc(C(=O)NC3CCNCC3)ccc21` [CBK306873], the viability at 28.5 h, 10 µM stood at 98.1%.
Then `Cc1cc(O)n2nc(CC(=O)NCCCn3ccnc3C(C)C)nc2n1` [CBK306876], with 91.5%.
Then `Cc1c(C(=O)NCCN2CCCC(C(N)=O)C2)[nH]c2c(F)cccc12` (centres unmarked) [CBK306877], with 81.7%; and `CCCCSc1nc(N)cc(N2CCC(C(=O)NCC)C2)n1` (centres unmarked) [CBK306880], with 88.2%; and `O=C(NCCc1cccs1)Nc1cccc(CN2CCCCC2)c1` [CBK306882], with 96.1%.
With `COc1c(C)cc(-c2ncnc(C)c2C)cc1C` [CBK306884] the figure was 67.6%; with `Cc1nc(C)c(C(=O)NCc2cccnc2N(C)C2CCCCC2)s1` [CBK306885], 95%.
With `CN1CC2(CCCN(Cc3nnc(-c4cccnc4)o3)C2)OC1=O` (centres unmarked) [CBK306888], the viability at 28.5 h, 10 µM amounted to 110%.
For the compound `Cc1cc(-c2cn3cc(C(=O)N4CCCCC4)nc3c(=O)n2C)c(C)o1` [CBK306890], the viability at 28.5 h, 10 µM is 86.6%.
Then `c1cnc(NCc2cc3n(n2)CCN(CC2CCCCO2)C3)cn1` (centres unmarked) [CBK306891], with 96.4%.
Then `CCc1nc(-c2ccc(N(C)C)nc2)n(C)n1` [CBK306897], with 90.6%; and `CCOc1ccc(-c2ccnc(NCCNC(C)=O)n2)cc1C(=O)O` [CBK306898], with 85.1%; and `CN(CCO)c1ccc(C(=O)N2CCC(N3CCOCC3)CC2)cn1` [CBK306899], with 97%.
Then `CCn1cc(CN(CCOC)C(=O)c2cc3c(Cl)cccc3[nH]2)cn1` [CBK306903], with 91.5%.
As to `COc1ccc2[nH]c(CN3CCCC(c4nc(C)n[nH]4)C3)c(C)c2c1` (centres unmarked) [CBK306904], the viability at 28.5 h, 10 µM was determined as 101%.
With `Cn1cc(CCCNC(=O)c2cccc(CN3CCCCCC3)c2)cn1` [CBK306906] the figure was 93.7%; with `O=c1cc(N2CCCCC2)cnn1CCCn1cccn1` [CBK306907], 90.1%.
With `Nc1nc(C2CC(N)C2)cc(N2CCC(Oc3ccccc3F)CC2)n1` (centres unmarked) [CBK306909] the figure was 85.5%.
With `CCc1nc(N)nc(N2CCCC3(CN(C)C(=O)O3)C2)c1C` (centres unmarked) [CBK306914] the figure was 86.9%; with `Cc1cnc2c(Cl)c(C(=O)NCC3(CN4CCOCC4)CC3)nn2c1` [CBK306918], 98.8%.
As for `COc1ccc(CN2CCOC(C(=O)O)C2)cc1Cn1cncn1` (centres unmarked) [CBK306919], the viability at 28.5 h, 10 µM was 120%.
In the case of `Cc1cc(C)n(CC2(CNC(=O)C(c3ccccc3F)N(C)C)CC2)n1` (centres unmarked) [CBK306920], the viability at 28.5 h, 10 µM stood at 97.2%.
Then `CC(Cc1ccsc1)NS(=O)(=O)c1cccc(C(=O)N2CCCC2)c1` (centres unmarked) [CBK306923], with 85.8%; and `COc1ccnc(N2CCN(Cc3cncn3C3CCCCC3)CC2)n1` [CBK306925], with 98.1%; and `COc1ccccc1CCC(=O)NCc1cnc(SC)n1C` [CBK306926], with 85.9%.
As for `O=C(NCC(CO)Cc1ccsc1)N1CCN(c2ccncc2)CC1` (centres unmarked) [CBK306929], the viability at 28.5 h, 10 µM is 96.7%.
With `Cn1nccc1C(O)c1cc2n(n1)CCCN(C(=O)Cc1cccs1)C2` (centres unmarked) [CBK306930] the figure was 104%.
With `Cc1nc(CCN2CCN(c3ccc4nccn4n3)CC2)cs1` [CBK306932] the figure was 95.6%.
With `CCc1ocnc1C(=O)NC1CCN(c2ncccc2C#N)CC1` [CBK306935] the figure was 93%.
Consider `Cn1ncc(N2CCN(C(=O)CCCOc3ccccc3)CC2)cc1=O` [CBK306937], for which the viability at 28.5 h, 10 µM stood at 84.2%.
Then `CSc1nnc(CC2CCN(C(=O)c3ccc(C)cc3F)CC2)n1C` [CBK306939], with 105%; and `CCCCSc1nc(N)cc(N2CCN3C(=O)CN(C)C(=O)C3C2)n1` (centres unmarked) [CBK306940], with 82.4%; and `CCCc1nnc2sc(C3CCC(=O)N(C(C)C)C3)nn12` (centres unmarked) [CBK306942], with 108%.
Consider `Cc1cccc(C(C)NC(=O)C2(Cn3ccnc3)CC2)n1` (centres unmarked) [CBK306944], for which the viability at 28.5 h, 10 µM stood at 86.4%.
With `Cc1cccc(=O)n1CCCn1cc(C2CCCNC2)nn1` (centres unmarked) [CBK306946] the figure was 91%; with `CC(Cn1cccn1)NC(=O)N1CCN(Cc2ccc(F)cc2)CC1` (centres unmarked) [CBK306948], 88.9%; with `CCn1cc(CN(C)Cc2csc(C)n2)c2cc(C(=O)O)ncc21` [CBK306950], 116%.
Consider `CCn1ncc(CN2CCCC(CCC(=O)N3CCN(C)CC3)C2)c1C` (centres unmarked) [CBK306951], for which the viability at 28.5 h, 10 µM stood at 80.4%.
With `Cc1nc(CCCn2cnc3ncccc3c2=O)sc1C` [CBK306953] the figure was 106%.

In general, viability refers to a read-out of living cells in per cent, often relative to untreated cells.
